Experimental data as given in patent publication US10865222B2, “Neisseria gonorrhoeae therapeutic based on CMP-nonulosonate sugars” (priority 2014, dated 2020).
Entries after “also recorded” stand apart in the source; their conditions may differ.

Columns and labels:
[1] = target: T1, gonococcal LOS sialyltransferase (Lst) (Neisseria gonorrhoeae, UniProt P72074); type: cell-based, N. gonorrhoeae; conditions: CMP salt 30 μM (20 μg/ml), 2 h at 37° C.
T1 construct: served as substrates for gonococcal Lst in the context of live bacteria; endogenous in cells; host or cells: N. gonorrhoeae F62 ΔlgtD (live bacteria)
Method: FIG. 1. Substrate specificity of gonococcal LOS sialyltransferase (Lst) N. gonorrhoeae strain F62 ΔIgtD was grown in standard gonococcal liquid media alone (‘No sialic acid’) or in media supplemented with CMP salts of the indicated sialic acid or nonulosonic acid, each at a concentration of 20 μg/ml (˜30 μM), for 2 h at 37° C. Bacteria were washed, pellets treated with protease K, lysed in 4×LDS buffer and lysates were separated on 12% Bis-Tris gels using MES running buffer. LOS was transferred to a PVDF membrane and probed with mAb 3F11 that recognizes the lacto-N-neotetraose only in the non-sialylated state; the addition of a sialic acid or nonulosonate residue abrogates mAb 3F11 binding (upper panel). LOS was also visualized by silver staining (middle panel). Sialylation or nonulosonate (NulO) modification was also quantified using whole cell ELISA with mAb 3F11 (lower graph).
To define the substrate specificity of gonococcal LOS sialyltransferase, N. gonorrhoeae F62 ΔIgtD was grown in media alone, or media that contained the CMP-activated derivatives of 7 nonulosonates (listed in Table 1), each at a concentration of 30 μM (20 μg/ml). Following incubation for 2 h at 37° C., bacteria were washed, lysed with protease K/LDS sample buffer and separated on 12% Bis-tris gels. Blots were probed with mAb 3F11, which binds to the terminal lactosamine residue of lacto-N-neotetraose (LNT); any extension beyond the terminal Gal (in this instance with a nonose) would abrogate 3F11 binding. […] Whole cell ELISA with mAb 3F11 confirmed results of western blotting (FIG. 1, lower graph).
Bacteria (F62 ΔIgtD) grown overnight on chocolate agar plates were suspended in gonococcal liquid media supplemented with IsoVitaleX (11) that contained specified concentrations of the CMP-nonulosonate. Bacteria were then incubated at 37° C. for the period specified in each experiment.
Gonococcal lysates treated with protease K (100 μg/ml) and NuPAGE® LDS Sample Buffer (4×) (Invitrogen) were separated on NuPAGE® 12% Bis-Tris (Invitrogen) gels using Novex® MES running buffer (Invitrogen) followed by sliver staining with the Bio-Rad Silver Stain Kit, or were transferred to an Immobilon PVDF membrane (Millipore). Membranes were blocked with PBS/1% milk and probed with tissue culture supernatants that contained mAb 3F11. mAb 3F11-reactive LOS bands were disclosed with anti-mouse IgM conjugated to alkaline phosphatase followed by the addition of BCIP®/NBT-Purple Liquid Substrate (Sigma).

N. gonorrhoeae F62 ΔIgtD = assay: Whole cell ELISA for Ab binding and complement component deposition; type: cell-based; conditions: for complement deposition (C3, C4 and fB) and Ig binding: 3.3% and 10% NHS; for Neu5Ac-mediated decrease in IgG binding and complement deposition (C4, C3, factor Bb): analogue 20, 2 or 0.2 μg/ml 15 min after CMP-Neu5Ac 20 μg/ml, 10% and 3.3% NHS
Method: FIG. 4. Complement C3 and C4 deposition on, and factor B binding to N. gonorrhoeae bearing nonulosonic acid analogues on LOS. N. gonorrhoeae F62 ΔIgtD was grown in media alone (open bars), or media supplemented with 20 μg/ml (˜30 μM) of each of the indicated CMP-nonulosonates. Bacteria were incubated with either 3.3% or 10% NHS at 37° C. for 10 min and IgG and IgM binding, and C3, C4 and factor B deposited on bacteria were measured by whole cell ELISA. Data with 3.3% and 10% NHS is shown by hatched and solid bars, respectively. Measurement of gonococcal H.8 lipoprotein antigen was performed to ensure similar bacterial capture to microtiter wells. The mean (SD) of triplicate observations is shown.
FIG. 6. CMP-Neu5Ac9Az and CMP-Leg5Ac7Ac interfere with inhibition of the classical and alternative pathways of complement mediated by CMP-Neu5Ac. N. gonorrhoeae F62 ΔIgtD was incubated with 20 μg/ml (˜30 μM) CMP-Neu5Ac, followed in 15 min by the addition of CMP-Neu5Ac9Az or CMP-Leg5Ac7Ac (at concentrations of 20, 2 or 0.2 μg/ml final) and bacteria were incubated for 2 h as described in FIG. 5. Bacteria were incubated in 10% NHS and Ab binding and complement deposition studies were carried out by ELISA as described in FIG. 4. The mean (SD) of two independent experiments is shown.
Binding of IgG and IgM to, and deposition of complement components C3, C4 and factor B on N. gonorrhoeae F62 ΔIgtD grown in the presence of the following CMP-nonulosonates was examined based on results of bactericidal assays and fH binding. […] N. gonorrhoeae F62 ΔIgtD with an unmodified (unsialylated) LNT LOS was used as the control serum sensitive strain. Experiments were carried out using serum concentrations of 10% and 3.3%, which represented the serum concentrations that produced discriminating phenotypes with Neu5Ac9Ac and Neu5Gc8Me.
To define the mechanism whereby Neu5Ac9Az and Leg5Ac7Ac blocked complement resistance by Neu5Ac, we studied Ab binding to, and complement component deposition on N. gonorrhoeae F62 ΔIgtD that was incubated with CMP-Neu5Ac (20 μg/ml), followed 15 min later with either CMP-Neu5Ac9Az or CMP-Leg5Ac7Ac at concentrations of 20, 2 or 0.2 μg/ml. Controls included bacteria grown in the absence of any CMP-nonulosonate, or bacteria grown in CMP-Neu5Ac alone.
C3 and C4 fragment deposition on, and factor B binding to bacteria were measured by whole cell ELISA as described previously (14, 15). Briefly, 2×10^8 organisms in HBSS^++ were incubated with NHS (at concentrations of 3.3% or 10%) in a reaction volume of 100 μl for 10 min at 37° C. This time point was chosen based on the kinetics of complement deposition on gonococci in previously published data (15). Reactions were stopped after 10 min by washing three times with ice-cold HBSS containing 5 mM phenylmethylsulfonyl fluoride at 4° C. Organisms were resuspended in 200 μl of the same buffer, and 50 μl of each sample applied per well of a 96-well U-bottomed polystyrene microtiter plate (Dynatech Laboratories, Inc., Chantilly, Va.) and incubated for 3 h at 37° C. Plates were washed with PBS containing 0.05% Tween 20. Primary antibodies (polyclonal goat anti-human C3, C4 and factor B) were diluted in PBS, and secondary antibodies diluted in PBS-0.05% Tween 20 prior to use. To ensure similar capture of bacteria incubated under different conditions, the amount of gonococcal H.8 antigen (16) expression using MAb 2-8C-4-1 (13), followed by anti-mouse IgG-alkaline phosphatase conjugate, was measured.

[2] = 10% serum, compared with unsialylated F62 ΔIgtD
[3] = CMP-nonulosonate 20 μg/ml, NHS 3.3% or 10%

T1 sequence (P72074 whole entry): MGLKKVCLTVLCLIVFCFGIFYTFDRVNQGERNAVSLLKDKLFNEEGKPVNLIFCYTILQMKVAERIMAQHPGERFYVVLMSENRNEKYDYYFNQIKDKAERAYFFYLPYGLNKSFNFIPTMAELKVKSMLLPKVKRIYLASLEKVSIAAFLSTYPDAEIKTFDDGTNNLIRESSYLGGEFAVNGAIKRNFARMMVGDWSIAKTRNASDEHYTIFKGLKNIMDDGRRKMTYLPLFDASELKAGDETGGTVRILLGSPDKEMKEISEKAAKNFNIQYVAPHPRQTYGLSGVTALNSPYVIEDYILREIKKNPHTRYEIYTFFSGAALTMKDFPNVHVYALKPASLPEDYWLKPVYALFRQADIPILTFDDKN

Compound	mAb 3F11 binding / incorporation of nonulosonate onto LNT LOS (use as Lst substrate) [1]	complement deposition (C3, C4 and fB) and Ig binding (N. gonorrhoeae F62 ΔIgtD; CMP-nonulosonate 20 μg/ml)	Neu5Ac-mediated decrease in IgG binding and complement deposition (C4, C3, factor Bb) (N. gonorrhoeae F62 ΔIgtD)	C3, C4 and factor B deposition (N. gonorrhoeae F62 ΔIgtD; 3.3% serum)	C3, C4 and factor B deposition (N. gonorrhoeae F62 ΔIgtD; [2])	IgG binding (N. gonorrhoeae F62 ΔIgtD; [3])	IgM binding (N. gonorrhoeae F62 ΔIgtD; [3])
5,7-diacetamido-3,5,7,9-tetradeoxy-D-glycero-D-galacto-nonulosonic acid [CMP-Leg5Ac7Ac]	decreased binding of mAb 3F11; also recorded: least incorporated	highest levels of complement deposition and Ig binding	least amount of complement inhibition; also recorded: blocked this decrease				
CC(=O)N[C@H]1[C@H]([C@H](O)[C@H](O)COC(C)=O)OC(OP(=O)(O)OC[C@H]2O[C@@H](n3ccc(N)nc3=O)[C@H](O)[C@@H]2O)(C(=O)O)C[C@@H]1O (stereo partly drawn) [CMP-Neu5Ac9Ac, CMP-5-acetamido-9-O-acetyl-3,5-dideoxy-D-glycero-D-galacto-nonulosonic acid]	decreased binding of mAb 3F11			low levels	only a modest decline	reduced IgG binding	
CC(=O)N[C@H]1[C@H]([C@H](O)[C@H](O)CN=[N+]=[N-])OC(OP(=O)(O)OC[C@H]2O[C@@H](n3ccc(N)nc3=O)[C@H](O)[C@@H]2O)(C(=O)O)C[C@@H]1O (stereo partly drawn) [CMP-Neu5Ac9Az, CMP-5-acetamido-9-azido-3,5,9-trideoxy-D-glycero-D-galacto-nonulosonic acid]	decreased binding of mAb 3F11	highest levels of complement deposition and Ig binding	blocked this decrease				
CC(=O)NC1C(O)CC(OP(=O)(O)OCC2OC(n3ccc(N)nc3=O)C(O)C2O)(C(=O)O)OC1C(O)C(O)CO [CMP-Neu5Ac, CMP-5-acetamido-3,5-dideoxy-D-glycero-D-galacto-nonulosonic acid, reference compound]	decreased binding of mAb 3F11	maximal complement inhibition				decreased IgG binding substantially	small but reproducible decrease
COC(CO)C(O)C1OC(OP(=O)(O)OCC2OC(n3ccc(N)nc3=O)C(O)C2O)(C(=O)O)CC(O)C1NC(=O)CO [CMP-Neu5Gc8Me, CMP-5-hydroxyacetamido-8-O-methyl-3,5-dideoxy-D-glycero-D-galacto-nonulosonic acid]	decreased binding of mAb 3F11			low levels	only a modest decline	reduced IgG binding	
